In patent US20250034200A1, “Prodrugs of Neurosteroid Analogs and Uses Thereof” (priority 2021, published 2025):
Where a name gives a salt, the structure may show the parent alone. Read-outs that look alike come from different tables or passages of the source.

Assays:
[1] = Aqueous stability assay (HPLC, pseudo first-order half-life); type: physicochemical; settings: DPBS pH 7.0-7.3, 1 mg/mL, room temperature; for half-life at 1 mg/mL / half-life: buffer, read-out: PBS t1/2 (converted)
Experimental: Aqueous stability experiments were performed on an Agilent 1100 HPLC equipped with an Agilent 1200 autosampler. HPLC grade solvents were exclusively used during analysis, with acetonitrile being purchased from Sigma Aldrich, and water and formic acid provided by Fisher Scientific. […]
[…] All mixtures were then sonicated for 5 min or stirred until complete dissolution was achieved. Any precipitate observed in sample solutions was filtered with a PTFE syringe filter prior to analysis. Immediately after sample preparation, injection by the HPLC autosampler was performed, which was recorded as the initial time point (t=0 min). Samples were then kept in the autosampler at room temperature and injected at designated intervals without additional filtration or sample modification. Next, the area of the parent peak in each chromatogram was determined by automated integration in the Agilent ChemStation software. Pseudo first-order half-lives were then ascertained by calculating the percent of the parent compound remaining after each time point. Plots of time (x-axis) vs. the natural logarithm of percent parent remaining (y-axis) were subsequently constructed to determine the slope. Finally, the aqueous stability was evaluated using the following equation:
The HPLC conditions were as follows: injection volume, 1 μL; column temperature: 40° C.; detector: 254 nm; stationary phase: Zorbax Eclipse XDB-C18 (4.6×150 mm, 5 μm); flow rate: 1 mL/min; mobile phase: 80-95% acetonitrile in H2O (0.1% formic acid).

[2] = Plasma stability assay (LC-MS/MS); type: in vitro ADME; settings: human plasma, 37° C., 3 μM
Experimental: Procaine and procainamide were purchased from Sigma Aldrich. HPLC-grade acetonitrile, water, methanol, and formic acid were purchased from Fisher Scientific. Human plasma (Cat. No. […]2N) was obtained from BIOIVT, and PBS (1×Dulbecco's, pH 7.4) from Thermo Fisher Scientific.
Test compounds were dissolved in DMSO to make a stock solution of 10 mM and then diluted to 500 μM in buffer or 70% methanol. Human plasma was thawed at ambient temperature and aliquoted (994.0 μL) to a 1.5 mL Eppendorf tube in duplicates (vials A and B) for each compound. The plasma was incubated at 37° C. for 10 min in an incubator shaker at 150 RPM; the reaction was initiated by addition of the test compound (6.0 μL), followed by vortex mixing. The total reaction volume was 1000 μL, the final organic solvent concentrations were […] (when 70% methanol was used for dilution) and 0.03% DMSO, and the final concentration of the test compound was 3 μM. The spiked plasma samples were incubated at 37° C. for 4 h. The reactions were terminated at time point 0, 15, 30, 60, 120, 180, and 240 min by taking a 100 μL aliquot from the test incubation mixture and immediately quenching it by adding it into ice-cold acetonitrile or methanol (150 μL) containing 2 μM internal standard (ISTD), followed by vortex mixing. The ISTD was d5-7-ethoxy coumarin. The samples were then centrifuged at 15000 RPM for 25 min at 4° C., and the supernatant was transferred to an LC-MS vial for analysis by LC-MS/MS. Each time point was tested in duplicates followed by in-between blank washes to avoid carryover and to equilibrate the column.
Procaine (poor plasma stability) and procainamide (good plasma stability) were used as controls at the same concentration as that of the test compound. These controls were run in parallel to test the assay's competency. Matrix blank was prepared by adding acetonitrile or methanol containing ISTD to plasma samples without any of the test or control compounds. Also, an additional control sample was made to simply monitor compound degradation in PBS buffer.
Below is a summary of samples prepared for a given test compound in a typical plasma stability assay: • Test compound (TC): 994 μL human plasma+6.0 μL TC (Vial A) 994 μL human plasma+6.0 μL TC (Vial B) • Control: 596 μL human plasma+3.6 μL (procaine+procainamide) • Blank matrix: 500 μL PBS buffer+100 μL human plasma • Additional control: 142 μL PBS buffer+0.9 μL TC • Quenching mixture: 150 μL acetonitrile or methanol with ISTD (2 μM) • Final volume: 250 μL (100 μL from the incubation mixture+150 μL quenching mixture; final ISTD conc.: 1.2 μM)
LC-MS/MS analysis was performed using Agilent 1260 Infinity II HPLC, coupled with an Agilent G6460 triple quadrupole mass spectrometer (Agilent Technologies, USA). The data were acquired and processed using the Agilent 6460 Quantitative Analysis data processing software.
Reverse-phase HPLC separation for each compound was achieved on an Agilent InfinityLab Poroshell 120 C18 column (2.1×50 mm, 2.7 μm) with a mobile phase composed of methanol/water with 0.1% formic acid or acetonitrile/water with 0.1% formic acid at a flow rate of 0.5 mL/min. Each method was developed in the presence of the ISTD. The column temperature was maintained at 40° C. The detection was operated using the Agilent Jet-Stream electrospray positive ionization under the multiple reaction monitoring mode. The mass spec conditions were as follows: dwell time 100 ms; gas flow 10 L/min; nebulizer pressure 45 psi; delta EMV 200 V.
Plots of time (x-axis) vs. the natural logarithm of percent parent remaining (y-axis) were subsequently constructed to determine the slope. Finally, the plasma stability was evaluated using the following equation: […]

[3] = read-out: Plasma t1/2 (converted)

## C/C(=N\OC(=O)NCCCN)[C@H]1CC[C@H]2[C@@H]3CCC4=CC(=O)CC[C@]4(C)[C@H]3CC[C@]12C [32e, (8S,9S,10R,13S,14S,17S)-17-((E)-1-((((3-aminopropyl)carbamoyl)oxy)imino)ethyl)-10,13-dimethyl-1,2,6,7,8,9,10,11,12,13,14,15,16,17-tetradecahydro-3H-cyclopenta[a]phenanthren-3-one hydrochloride]
[1]; d (days)
  PBS t1/2: 120 days
[1]
  half-life at 1 mg/mL: 2880 h

## C/C(=N\OC(=O)OCCN)[C@H]1CC[C@H]2[C@@H]3CCC4=CC(=O)CC[C@]4(C)[C@H]3CC[C@]12C [32f, (8S,9S,10R,13S,14S,17S)-17-((E)-1-((((2-aminoethoxy)carbonyl)oxy)imino)ethyl)-10,13-dimethyl-1,2,6,7,8,9,10,11,12,13,14,15,16,17-tetradecahydro-3H-cyclopenta[a]phenanthren-3-one hydrochloride]
[1]
  half-life at 1 mg/mL: 0.11 ± 0.01 h

## C/C(=N\OC(=O)N1CCC[C@H]1CN)[C@H]1CCC2[C@@H]3CCC4=CC(=O)CC[C@]4(C)[C@H]3CC[C@@]21C (stereo partly drawn) [32h, ((2S)-1-(((((E)-1-((8S,9S,10R,13S,17S)-10,13-dimethyl-3-oxo-2,3,6,7,8,9,10,11,12,13,14,15,16,17-tetradecahydro-1H-cyclopenta[a]phenanthren-17-yl)ethylidene)amino)oxy)carbonyl)pyrrolidin-2-yl) methanaminium chloride]
[1]; d (days)
  half-life at 1 mg/mL: > 720 h
[2]; [3]
  half-life at 3 µM: > 4 h

## CNC[C@@H]1CCCN1C(=O)O/N=C(\C)[C@H]1CCC2[C@@H]3CCC4=CC(=O)CC[C@]4(C)[C@H]3CC[C@@]21C.Cl (stereo partly drawn) [32k, 1-((2S)-1-(((((E)-1-((8S,9S,10R,13S,17S)-10,13-dimethyl-3-oxo-2,3,6,7,8,9,10,11,12,13,14,15,16,17-tetradecahydro-1H-cyclopenta[a]phenanthren-17-yl)ethylidene)amino)oxy)carbonyl)pyrrolidin-2-yl)-N-methylmethanaminium chloride]
[1]; d (days)
  half-life: > 720 h
[2]; [3]
  half-life: > 4 h

## C/C(=N\OC(=O)N(C)C[C@@H]1CCCCN1)[C@H]1CCC2[C@@H]3CCC4=CC(=O)CC[C@]4(C)[C@H]3CC[C@@]21C.Cl (stereo partly drawn) [32l, (8S,9S,10R,13S,17S)-10,13-dimethyl-17-((E)-1-(((methyl(((S)-piperidin-2-yl)methyl)carbamoyl)oxy)imino)ethyl)-1,2,6,7,8,9,10,11,12,13,14,15,16,17-tetradecahydro-3H-cyclopenta[a]phenanthren-3-one hydrochloride]
[1]; d (days)
  half-life: 475 h
[2]; [3]
  half-life: 6.8 h

## C/C(=N\OC(=O)N(C)C[C@@H]1C[C@@H](O)CN1)[C@H]1CC[C@H]2[C@@H]3CCC4=CC(=O)CC[C@]4(C)[C@H]3CC[C@]12C.O=C(O)C(F)(F)F [32m, (8S,9S,10R,13S,14S,17S)-17-((E)-1-((((((2S,4R)-4-hydroxypyrrolidin-2-yl)methyl)(methyl)carbamoyl)oxy)imino)ethyl)-10,13-dimethyl-1,2,6,7,8,9,10,11,12,13,14,15,16,17-tetradecahydro-3H-cyclopenta[a]phenanthren-3-one 2,2,2-trifluoroacetate]
[1]
  half-life: 1.3 h

## C/C(=N\OC(=O)OC[C@@H]1CCCN1)[C@H]1CCC2[C@@H]3CCC4=CC(=O)CC[C@]4(C)[C@H]3CC[C@@]21C.Cl (stereo partly drawn) [32n, (8S,9S,10R,13S,17S)-10,13-dimethyl-17-((E)-1-((((((S)-pyrrolidin-2-yl)methoxy)carbonyl)oxy)imino)ethyl)-1,2,6,7,8,9,10,11,12,13,14,15,16,17-tetradecahydro-3H-cyclopenta[a]phenanthren-3-one hydrochloride]
[1]
  half-life: 0.09 ± 0.01 h

## C/C(=N\OC(=O)N(C)CCNCCF)[C@H]1CC[C@H]2[C@@H]3CCC4=CC(=O)CC[C@]4(C)[C@H]3CC[C@]12C.O=C(O)C(F)(F)F [32o, (E)-2-((8S,9S,10R,13S,14S,17S)-10,13-dimethyl-3-oxo-2,3,6,7,8,9,10,11,12,13,14,15,16,17-tetradecahydro-1H-cyclopenta[a]phenanthren-17-yl)-11-fluoro-6-methyl-4-oxa-3,6,9-triazaundec-2-en-5-one 2,2,2-trifluoroacetate]
[1]
  half-life at 1 mg/mL: 36.1 ± 2.4 h
[2]
  Plasma t1/2: 2.2 h

## CNCCN(CC(=O)O)C(=O)O/N=C(\C)[C@H]1CC[C@H]2[C@@H]3CCC4=CC(=O)CC[C@]4(C)[C@H]3CC[C@]12C.O=C(O)C(F)(F)F [53g, N-(((((E)-1-((8S,9S,10R,13S,14S,17S)-10,13-dimethyl-3-oxo-2,3,6,7,8,9,10,11,12,13,14,15,16,17-tetradecahydro-1H-cyclopenta[a]phenanthren-17-yl)ethylidene)amino)oxy)carbonyl)-N-(2-(methylamino)ethyl)glycine 2,2,2-trifluoroacetate]
[1]
  half-life: > 24 h

## CNCCN(CCC(=O)O)C(=O)O/N=C(\C)[C@H]1CC[C@H]2[C@@H]3CCC4=CC(=O)CC[C@]4(C)[C@H]3CC[C@]12C.O=C(O)C(F)(F)F [53h, 3-((((((E)-1-((8S,9S,10R,13S,14S,17S)-10,13-dimethyl-3-oxo-2,3,6,7,8,9,10,11,12,13,14,15,16,17-tetradecahydro-1H-cyclopenta[a]phenanthren-17-yl)ethylidene)amino)oxy)carbonyl)(2-(methylamino)ethyl)amino) propanoic acid 2,2,2-trifluoroacetate]
[1]
  half-life: > 24 h

## C/C(=N\OC(=O)N(CCNC(C)(C)C)C(C)(C)C)[C@H]1CC[C@H]2[C@@H]3CCC4=CC(=O)CC[C@]4(C)[C@H]3CC[C@]12C.Cl [54c, (E)-6-(tert-butyl)-2-((8S,9S,10R,13S,14S,17S)-10,13-dimethyl-3-oxo-2,3,6,7,8,9,10,11,12,13,14,15,16,17-tetradecahydro-1H-cyclopenta[a]phenanthren-17-yl)-10,10-dimethyl-4-oxa-3,6,9-triazaundec-2-en-5-one hydrochloride]
[1]
  half-life: > 24 h
[2]; 2 h
  Plasma % rmn at 2 h: 93%

## C/C(=N\OC(=O)N(C)Cc1ccccn1)[C@H]1CC[C@H]2[C@@H]3CCC4=CC(=O)CC[C@]4(C)[C@H]3CC[C@]12C [compound 36, (8S,9S,10R,13S,14S,17S)-10,13-dimethyl-17-((E)-1-(((methyl(pyridin-2-ylmethyl)carbamoyl)oxy)imino)ethyl)-1,2,6,7,8,9,10,11,12,13,14,15,16,17-tetradecahydro-3H-cyclopenta[a]phenanthren-3-one]
[2]; [3]
  half-life: 222 h
